The values that follow come from patent US20260191838A1, “COMBINATIONS COMPRISING A MENIN-MLL INHIBITOR AND A BCL-2 INHIBITOR” (JANSSEN PHARMACEUTICA NV, priority 2022, published 2026).

The structures appear in SMILES notation.

Data set [1] is described as follows: Dynamic vapor sorption (DVS) moisture sorption analysis. It counts as physicochemical. How it is done: Dynamic Vapor Sorption (DVS)
The moisture sorption analysis (DVS) was performed using a ProUmid GmbH & Co.
KG Vsorp Enhanced dynamic vapor sorption apparatus. The moisture profile was evaluated by monitoring vapor adsorption/desorption over the range of 0 to 90% relative humidity at 25° C. The sample weight equilibrium criteria were set at 0.01% change in 45 min with minimum and maximum time of acclimation at 50 min and 120 min, respectively. The moisture profile consisted of 2 cycles of vapor adsorption/desorption.

The test system of a further data set is OCI-AML3 cells. The experiment in a line: Proliferation (spheroid) assay, OCI-AML3. It counts as cell-based. The following applies: Homo sapiens, OCI-AML-3, 192 h; 8 days; read-out: spheroid assay_OCI-AML3 IC50. How it is done: (§1) The anti-proliferative effect of menin/MLL protein/protein interaction inhibitor test compounds was assessed in human leukemia cell lines. The cell line MOLM14 harbors a MLL translocation and expresses the MLL fusion protein MLL-AF9, respectively, as well as the wildtype protein from the second allele. OCI-AML3 cells that carry the NPM1c gene mutation were also tested. […] KO-52 was used as a control cell line containing two MLL (KMT2A) wildtype alleles in order to exclude compounds that display general cytotoxic effects.
(§2) MOLM14 cells were cultured in RPMI-1640 (Sigma Aldrich) supplemented with 10% heat-inactivated fetal bovine serum (HyClone), 2 mM L-glutamine (Sigma Aldrich) and 50 μg/ml gentamycin (Gibco). KO-52 and OCI-AML3 cell lines were propagated in alpha-MEM (Sigma Aldrich) supplemented with 20% heat-inactivated fetal bovine serum (HyClone), 2 mM L-glutamine (Sigma Aldrich) and 50 μg/ml gentamycin (Gibco).
(§3) In order to assess the anti-proliferative effects, 200 MOLM14 cells, 200° C. […] Spheroid like growth was measured in real-time by live-cell imaging (IncuCyteZOOM, Essenbio, 4× objective) acquiring images at day 8. Confluence (%) as a measure of spheroid size was determined using an integrated analysis tool.
(§4) In order to determine the effect of the test compounds over time, the confluence in each well as a measure of spheroid size, was calculated. […]

In another data set the test system is KO-52 cells. The experiment in a line: Proliferation (spheroid) assay, KO-52 control cell line. The format is cell-based. Conditions: Homo sapiens, 192 h; 8 days; read-out: spheroid assay_KO-52 IC50. How it is done:
as §1, §2, §3, §4

Another data set deals with MOLM14 cells. The data set is described as follows: Proliferation (spheroid) assay, MOLM14. The format is cell-based. Conditions: Homo sapiens, MOLM-14, 192 h, 8 days; read-out: spheroid assay_MOLM14 IC50. How it is done:
as §1, §2
In order to assess the anti-proliferative effects, 200 MOLM14 cells, […] or 300 KO-52 cells were seeded in 200 μl media per well in 96-well round bottom, ultra-low attachment plates (Costar, catalogue number 7007). Cell seeding numbers were chosen based on growth curves to ensure linear growth throughout the experiment. Test compounds were added at different concentrations and the DMSO content was normalized to 0.3%. Cells were incubated for 8 days at 37° C. and 5% CO2. Spheroid like growth was measured in real-time by live-cell imaging (IncuCyteZOOM, Essenbio, 4× objective) acquiring images at day 8. Confluence (%) as a measure of spheroid size was determined using an integrated analysis tool.
In order to determine the effect of the test compounds over time, the confluence in each well as a measure of spheroid size, was calculated. Confluence of the highest dose of a reference compound was used as baseline for the LC (Low control) and the confluence of DMSO treated cells was used as 0% cytotoxicity (High Control, HC).
Absolute IC50 values were calculated as percent change in confluence as follows: • LC=Low Control: cells treated with e.g. 1 μM of the cytotoxic agent staurosporin, or e.g. cells treated with a high concentration of an alternative reference compound • HC═High Control: Mean confluence (%) (DMSO treated cells) • % Effect=100−(100*(Sample-LC)/(HC-LC))
GraphPad Prism (version 7.00) was used to calculate the ICso. Dose-response equation was used for the plot of % Effect vs Log10 compound concentration with a variable slope and fixing the maximum to 100% and the minimum to 0%.

For another data set, the system named is MEIS1 mRNA. The experiment in a line: MEIS1 mRNA expression assay (Quantigene Singleplex) in MOLM14 cells. The format is cell-based. The following applies: Homo sapiens, MOLM-14, 48 hours. Here is the method: 2b) MEIS1 mRNA Expression Assay
MEIS1 mRNA expression upon treatment of compound was examined by Quantigene Singleplex assay (Thermo Fisher Scientific). This technology allows for direct quantification of mRNA targets using probes hybridizing to defined target sequences of interest and the signal is detected using a Multimode plate reader Envision (PerkinElmer). The MOLM14 cell line was used for this experiment. Cells were plated in 96-well plates at 3,750 cells/well in the presence of increasing concentrations of compounds. After incubation of 48 hours with compounds, cells were lysed in lysis buffer and incubated for 45 minutes at 55° C. Cell lysates were mixed with human MEIS1 specific capture probe or human RPL28 (Ribosomal Protein L28) specific probe as a normalization control, as well as blocking probes. Cell lysates were then transferred to the custom assay hybridization plate (Thermo Fisher Scientific) and incubated for 18 to 22 hours at 55° C. Subsequently, plates were washed to remove unbound materials followed by sequential addition of preamplifiers, amplifiers, and label probe. Signals (=gene counts) were measured with a Multimode plate reader Envision. IC50s were calculated by dose-response modelling using appropriate software. For all non-housekeeper genes response equal counts corrected for background and relative expression. For each sample, each test gene signal (background subtracted) was divided by the normalization gene signal (RPL28: background subtracted). Fold changes were calculated by dividing the normalized values for the treated samples by the normalized values for the DMSO treated sample. Fold changes of each target gene were used for the calculation of IC50s.

Setting [2] is: common ambient RH of 40% to 75%.

With `CC(=O)N1CCC(CN2CC[C@@H](Cc3cn(-c4ccc(F)cc4C(=O)N(C)C(C)C)c4cncc(C)c34)C2)CC1` [Compound 51a], the “total moisture mass at equilibrium” value in data set [1] (setting [2]) is on record as 8.5-9.5%. Besides, in data set [1] (setting [2]), the “water content at equilibrium” value is “around 3 equivalents of water”. For the same compound, the “hygroscopicity (DVS change in mass plot)” value in data set [1] (crystalline HCl salt Form, 0 to 90% relative humidity, 25° C.) is listed as “hygroscopic”. For the same compound, the “solid-state form after DVS test (XRPD)” value in data set [1] (fraction obtained after the DVS test compared to starting material) is reported as “No indication of a solid-state form change”. Also, the “moisture adsorbed and desorbed, on average” value in data set [1] (humidity range of 20-90% RH, 25° C.) is “up to 2.5 % by mass”. Besides, the half-maximal inhibitory concentration (IC50) in the data set with OCI-AML3 cells was 70 nM; in the data set on KO-52 cells, 1200 nM; in the data set on MOLM14 cells, 13 nM; in the data set on MEIS1 mRNA, 11 nM.
